Measured values reported in patent US20210017607A1, “Methods of Predicting Responsiveness to Cancer Therapies” (The University of Chicago, priority 2019, published 2021).
“Also recorded” adds a separate entry of the source.

Legend:
[1] = tested on: Myc-CAP (STING^lo) tumors; experiment: Myc-CAP syngeneic tumor growth; format: in vivo, mouse; conditions: for effect of concomitant agent on anti-tumor response elicited by degarelix/rucaparib/buparlisib (ADT/PARPi/PI3Ki): syngeneic mice
Description: FIGS. 25A and 25B. […] (25A-25B) Myc-CAP (STING^lo) tumor-bearing syngeneic mice were treated with the indicated drug(s) until untreated tumors reached approx. 2500 mm^3. Tumor volume curves for duration of treatment are shown.
FIGS. 26A-26D. […] Immunodeficient athymic nude (26A) and NOD-SCID (26B) mice were engrafted with Myc-CAP (STING^lo) tumors and treated with the indicated drug(s) until untreated tumors reached approx. 2000 mm^3. Tumor volume curves for duration of treatment are shown. For 26A-26B, n=3-4 mice per group. (26C-26D) Single-cell suspensions were generated from harvested tumors and analyzed by flow cytometry for the indicated immune cell populations and their activation states. Data are represented relative to CD45+ immune cells. For 26C-26D, n=3-5 animals per treatment group from 2 independent experiments. Significance/p-values were calculated by […].
FIGS. 29A-29M. […] Myc-CAP cancer cells were treated with the indicated drugs singly or in combination for 36 hours. (29A) Cells were stained with anti-mouse specific p-γH2AX antibody and a fluorescently labeled secondary antibody for determination of DNA DSBs, which were quantified by confocal microscopy. (29B) Protein extracts from cells in 29A were analyzed for the indicated pharmacodynamic biomarkers by western blotting; (29C) Annexin V-PI staining was done to assess frequency of live cells (Annexin V^− PI^−) following drug treatment. (29D) Ultracentrifugation was utilized to purify microvesicles (MVs) from supernatants in treatment groups in (29A) and associated DNA DSBs was quantified by Nanodrop®. Independent experiments n=2. (29E) Ultracentrifugation was utilized to purify MVs from supernatants in indicated treatment groups in FIG. 17A, and associated DNA DSBs were quantified by Nanodrop®; n=2 independent experiments. (29F) Syngeneic mice were engrafted with Myc-CAP (STING^lo) cells, and tumors were harvested when the tumor volume reached 400 mm^3. Single cell suspensions of the tumors were treated with the indicated drug(s), in the presence or absence of GW4869 (MV biogenesis inhibitor). (29G) Bone marrow derived macrophage (BMDMs) were co-cultured for 30 hours with supernatants (−/+ exogenous 50 units of DNase I pre-treatment for 30 minutes) from Myc-CAP cells that were treated with the indicated drug(s) for 36 hours. (29H) cGAMP (10 μg/mL) was pre-incubated with 10 units of DNAse I or mock control for 30 minutes and then added to BMDMs for 30 hours. (29I-29L) STING^+/+/STING^−/− BMDMs were co-cultured for 36 hours with supernatants from Myc-CAP and B6-Myc cancer cells that were treated with the indicated drug(s) for 36 hours. Supernatants were collected from 29F-29L at the end of treatment and analyzed for IFNβ1 by ELISA. (29M) Myc-CAP (STING^lo) tumor-bearing mice were treated with the indicated drug(s) until tumors first reached approx. 2500 mm^3. For the degerelix/rucaparib/buparlisib combination, additional cohorts of mice underwent concomitant treatment with STING antagonist H-151 or GW4869. Tumor volume was recorded daily for duration of experiment. For in vitro experiments, n=2 independent experiments and for in vivo experiments n=3-4 animals /group.

[2] = tested on: single cell suspensions derived from Myc-CAP (STING^lo) tumors; experiment: Ex vivo reconstitution assay, IFNβ ELISA; format: cell-based, mouse; conditions: ex vivo
Description: FIGS. 15A-15E. Differential STING pathway activation within B6-Myc (STING^hi) cell lines and BMDMs relative to Myc-CAP (STING^lo) cells. (15A, 15B) The indicated cancer cell lines and BMDMs were treated with DMXAA (mouse STING agonist) for 1 and 24 hours, respectively, and protein extracts were interrogated for cGAS/STING pathway activation with the indicated antibodies by Western blotting. Supernatants were collected from for IFNβ1 ELISA following 36 hours of treatment with DMXAA (15C, 15D). (15E) Syngeneic Myc-CAP (STING^lo) tumors were processed into single cell suspensions and used for phycoerythrin-based sorting of CD45+ cellular fractions. Equal numbers of cells from these fractions were stimulated with DMXAA. Supernatants were collected at 36 hrs for detection of IFNB1 by ELISA; n=3 independent experiments; Significance/p-values were calculated by one-way Anova (for 15C & 15E) or paired t-test (for 15D); TAM=tumor associated macrophage; s.e.=short exposure; l.e.=long exposure.
FIGS. 29A-29M. PARPi alone induces DNA DSBs, but not apoptosis even in combination with PI3Ki in Myc-CAP (STING^lo) cancer cells; PARPi/PI3Ki combination induces intracellular DNA DSBs and proportionate release of MV surface-associated DNA DSBs from B6-Myc (STINGhi) cancer cells without affecting cellular viability; PARPi/PI3K treatment activates tumor-cell extrinsic cGAS/STING pathway within TAMs in vivo via MV surface-associated DNA DSBs released from tumor cells. Myc-CAP cancer cells were treated with the indicated drugs singly or in combination for 36 hours. (29A) Cells were stained with anti-mouse specific p-γH2AX antibody and a fluorescently labeled secondary antibody for determination of DNA DSBs, which were quantified by confocal microscopy. (29B) Protein extracts from cells in 29A were analyzed for the indicated pharmacodynamic biomarkers by western blotting; (29C) Annexin V-PI staining was done to assess frequency of live cells (Annexin V^− PI^−) following drug treatment. (29D) Ultracentrifugation was utilized to purify microvesicles (MVs) from supernatants in treatment groups in (29A) and associated DNA DSBs was quantified by Nanodrop®. Independent experiments n=2. (29E) Ultracentrifugation was utilized to purify MVs from supernatants in indicated treatment groups in FIG. 17A, and associated DNA DSBs were quantified by Nanodrop®; n=2 independent experiments. (29F) Syngeneic mice were engrafted with Myc-CAP (STING^lo) cells, and tumors were harvested when the tumor volume reached 400 mm^3. Single cell suspensions of the tumors were treated with the indicated drug(s), in the presence or absence of GW4869 (MV biogenesis inhibitor). (29G) Bone marrow derived macrophage (BMDMs) were co-cultured for 30 hours with supernatants (−/+ exogenous 50 units of DNase I pre-treatment for 30 minutes) from Myc-CAP cells that were treated with the indicated drug(s) for 36 hours. (29H) cGAMP (10 μg/mL) was pre-incubated with 10 units of DNAse I or mock control for 30 minutes and then added to BMDMs for 30 hours. (29I-29L) STING^+/+/STING^−/− BMDMs were co-cultured for 36 hours with supernatants from Myc-CAP and B6-Myc cancer cells that were treated with the indicated drug(s) for 36 hours. Supernatants were collected from 29F-29L at the end of treatment and analyzed for IFNβ1 by ELISA. […] Tumor volume was recorded daily for duration of experiment. […] Significance/p-values were calculated by one-way ANOVA. […]

[3] = IC90 concentrations stated for in vitro/ex vivo drug treatments; conditions: FIG. 50, Myc-CAP-PTEN^−/− tumor suspensions; read-out: IC90 concentration
[4] = tested on: Myc-CAP-PTEN^−/− cells; experiment: Myc-CAP-PTEN−/− cells in vitro (western blotting, cytokine array); format: cell-based, mouse; conditions: 1 μM, 24 hours
Description: FIGS. 35A-35D. […] (35A) Myc-CAP-PTEN^−/− cells were treated with copanlisib […] (IC90 concentration) in vitro for 24 hours, and protein extracts were harvested for western blotting analysis with the indicated antibodies to analyze PI3K activation. (35B) Supernatants from (35A) were harvested for cytokine array profiling. n=3 independent in vitro experiments. (35C) Mice bearing Myc-CAP-PTEN^−/− established syngeneic tumors (200 mm^3) were treated with copanlisib (14 mg/kg, every other day, until tumors reached 2000 mm^3). Tumor volumes were monitored daily and graphed. (35D) At the end of treatment, tumors were analyzed by flow cytometry for tumor infiltrating immune cell subsets. n=5 mice per group.
FIGS. 49A and 49B. PTEN-deficient cancer cells have diminished STING expression that can be restored by […] and pan-PI3K inhibitors. (49A) Isogenic MC38, Myc-CAP, ID8, and TRAMP cells (−/+ PTEN) were analyzed for STING mRNA and protein expression by qRT-PCR and western blotting, respectively. (49B) Myc-CAP-PTEN^−/− cells were treated with GSK′771 (PI3Kβ-selective inhibitor, 1 μM) or BKM120 (pan-PI3K inhibitor, 1 μM) for 24 hours, and proteins were analyzed for STING expression and PI3K activation by western blotting.
Cancer Cell Lines and in vitro drug treatments. Transgenic c-myc^hi prostate tumor derived cell line, Myc-CAP and TRAMPC1, ovarian cancer cell line ID8 and murine colon adenocarcinoma line MC38 were obtained from the American Type Culture Collection (ATCC) and passaged in either 1×RPMI/1×DMEM (with phenol) or 1×DMEM (without phenol red) containing 10% fetal bovine serum, 1% penicillin-streptomycin, 2% L-glutamine and 1×ITS. ID8^pten−/−p53−/−cells were a kind gift from Dr. Ian McNeish (Imperial College, London). For generation of STING over expressing cell lines −Myc-CAP^pten+/+ and ID8^pten−/− cells were transfected with commercial available plasmid (DC-Mm22462-SH02, Genecoepia™), sorted and expanded as per protocol. […]

[5] = tested on: BMDMs; experiment: BMDM co-culture with supernatants from drug-treated cancer cells; format: cell-based, mouse; conditions: cGAMP 10 μg/mL, 30 hours
Text: FIGS. 29A-29M. PARPi alone induces DNA DSBs, but not apoptosis even in combination with PI3Ki in Myc-CAP (STING^lo) cancer cells; PARPi/PI3Ki combination induces intracellular DNA DSBs and proportionate release of MV surface-associated DNA DSBs from B6-Myc (STINGhi) cancer cells without affecting cellular viability; PARPi/PI3K treatment activates tumor-cell extrinsic cGAS/STING pathway within TAMs in vivo via MV surface-associated DNA DSBs released from tumor cells. Myc-CAP cancer cells were treated with the indicated drugs singly or in combination for 36 hours. (29A) Cells were stained with anti-mouse specific p-γH2AX antibody and a fluorescently labeled secondary antibody for determination of DNA DSBs, which were quantified by confocal microscopy. (29B) Protein extracts from cells in 29A were analyzed for the indicated pharmacodynamic biomarkers by western blotting; (29C) Annexin V-PI staining was done to assess frequency of live cells (Annexin V^− PI^−) following drug treatment. (29D) Ultracentrifugation was utilized to purify microvesicles (MVs) from supernatants in treatment groups in (29A) and associated DNA DSBs was quantified by Nanodrop®. Independent experiments n=2. (29E) Ultracentrifugation was utilized to purify MVs from supernatants in indicated treatment groups in FIG. 17A, and associated DNA DSBs were quantified by Nanodrop®; n=2 independent experiments. […]

IC90 [3] [nM]	SMILES	effect of concomitant agent on anti-tumor response elicited by degarelix/rucaparib/buparlisib (ADT/PARPi/PI3Ki) [1]	further results
	O=C(/C=C/c1ccc(/C=C/C(=O)Nc2ccc(C3=NCCN3)cc2)cc1)Nc1ccc(C2=NCCN2)cc1 [GW4869]	abrogated the anti-tumor response; also recorded: significant abrogation	effect of concomitant agent on IFNβ / Type I IFN production following rucaparib/buparlisib (PARPi/PI3Ki) [2]: abolished the IFNβ production; also recorded: Significant down-regulation of Type I IFN production
500	Cc1c(Cn2c(C)nc3c(C(=O)O)cc(N4CCOCC4)cc32)cccc1C(F)(F)F [GSK771]		STING expression (western blotting) [4]: restored
500	C[C@H](NC(=O)c1c(N)nn2cccnc12)c1cc2cccc(C#Cc3cnn(C)c3)c2c(=O)n1-c1ccccc1 [IPI549]		
	Nc1nc2c(ncn2[C@@H]2O[C@@H]3COP(=O)(O)O[C@H]4[C@@H](O)[C@H](n5cnc6c(N)ncnc65)O[C@@H]4COP(=O)(O)O[C@@H]2[C@@H]3O)c(=O)[nH]1 [cGAMP, cyclic guanosine monophosphate-adenosine monophosphate]		Type I IFN production within BMDMs after DNase I pre-treatment of the agent [5]: did not abrogate the Type I IFN production
	CCc1ccc(NC(=O)Nc2c[nH]c3ccccc23)cc1 [H-151]	abrogated the anti-tumor response	effect of concomitant agent on anti-tumor response elicited by PARPi/PI3Ki ([1]; c-myc driven murine PC models, immunocompetent mice): abrogated
